Values of other authors in patent publication US20100055181A1, “CONTROLLED RELEASE DOSAGE FORMS OF ZOLPIDEM” (LUPIN LIMITED, priority 2006, published 2010).

Settings: hypnotic action, oral, conventional forms

Cc1ccc(-c2nc3ccc(C)cn3c2CC(=O)N(C)C)cc1 [zolpidem]
duration of action: up to 6 hours
